In ChEMBL document CHEMBL5303573, “Mapping human microbiome drug metabolism by gut bacteria and their genes” (Nature, 2019):

Tests used:
[1] = The drug is tested on Bacteroides dorei strain: DSM17855 for biotransformation. The drug concentrations were measured before and after a 12-h incubation by liquid-chromatography-coupled mass spectrometry (LC–MS); details: phocaeicola dorei, 2 µM
[2] = The drug is tested on Escherichia coli strain: BW25113 for biotransformation. The drug concentrations were measured before and after a 12-h incubation by liquid-chromatography-coupled mass spectrometry (LC–MS); details: 2 µM
[3] = The drug is tested on Clostridium ramosum strain: DSM1402 for biotransformation. The drug concentrations were measured before and after a 12-h incubation by liquid-chromatography-coupled mass spectrometry (LC–MS); details: thomasclavelia ramosa, 2 µM
[4] = The drug is tested on Eubacterium rectale strain: ATCC33656 for biotransformation. The drug concentrations were measured before and after a 12-h incubation by liquid-chromatography-coupled mass spectrometry (LC–MS); details: agathobacter rectalis, 2 µM
[5] = segatella copri, 12 h, 2 µM
Description: The drug is tested on Prevotella copri strain: DSM18205 for biotransformation. The drug concentrations were measured before and after a 12-h incubation by liquid-chromatography-coupled mass spectrometry (LC–MS)

[6] = victivallis vadensis, 12 h, 2 µM
Description: The drug is tested on Victivallis vadensis strain: ATCC BAA-548 for biotransformation. The drug concentrations were measured before and after a 12-h incubation by liquid-chromatography-coupled mass spectrometry (LC–MS)

[7] = The drug is tested on Eggerthella lenta strain: ATCC25559 for biotransformation. The drug concentrations were measured before and after a 12-h incubation by liquid-chromatography-coupled mass spectrometry (LC–MS); details: 2 µM
[8] = clostridioides difficile, 12 h, 2 µM
Description: The drug is tested on Clostridium difficile strain: 120 for biotransformation. The drug concentrations were measured before and after a 12-h incubation by liquid-chromatography-coupled mass spectrometry (LC–MS)

[9] = The drug is tested on Clostridium spiroforme strain: DSM1552 for biotransformation. The drug concentrations were measured before and after a 12-h incubation by liquid-chromatography-coupled mass spectrometry (LC–MS); details: thomasclavelia spiroformis, 2 µM
[10] = The drug is tested on Clostridium hathewayi strain: DSM13479 for biotransformation. The drug concentrations were measured before and after a 12-h incubation by liquid-chromatography-coupled mass spectrometry (LC–MS); details: hungatella hathewayi, 2 µM
[11] = The drug is tested on Bacteroides fragilis strain: T(B)9 for biotransformation. The drug concentrations were measured before and after a 12-h incubation by liquid-chromatography-coupled mass spectrometry (LC–MS); details: 2 µM
[12] = The drug is tested on Salmonella typhimurium strain: LT2 for biotransformation. The drug concentrations were measured before and after a 12-h incubation by liquid-chromatography-coupled mass spectrometry (LC–MS); details: salmonella enterica subsp. enterica, 2 µM
[13] = The drug is tested on Proteus penneri strain: ATCC35198 for biotransformation. The drug concentrations were measured before and after a 12-h incubation by liquid-chromatography-coupled mass spectrometry (LC–MS); details: 2 µM
[14] = The drug is tested on Eubacterium biforme strain: DSM3989 for biotransformation. The drug concentrations were measured before and after a 12-h incubation by liquid-chromatography-coupled mass spectrometry (LC–MS); details: holdemanella biformis, 2 µM
[15] = The drug is tested on Providencia alcalifaciens strain: DSM30120 for biotransformation. The drug concentrations were measured before and after a 12-h incubation by liquid-chromatography-coupled mass spectrometry (LC–MS); details: 2 µM

Row | SMILES | Bacterial Biotransformation [1] | Bacterial Biotransformation [2] | Bacterial Biotransformation [3] | Bacterial Biotransformation [4] | Bacterial Biotransformation [5] | Bacterial Biotransformation [6] | Bacterial Biotransformation [7] | Bacterial Biotransformation [8] | Bacterial Biotransformation [9] | Bacterial Biotransformation [10] | Bacterial Biotransformation [11] | Bacterial Biotransformation [12] | Bacterial Biotransformation [13] | Bacterial Biotransformation [14] | Bacterial Biotransformation [15]
1 | CCCCCCOC(=O)/N=C(/N)c1ccc(NCc2nc3cc(C(=O)N(CCC(=O)OCC)c4ccccn4)ccc3n2C)cc1.CS(=O)(=O)O [DABIGATRAN ETEXILATE MESYLATE] | Compound NOT metabolized | Compound NOT metabolized | Compound NOT metabolized | Compound NOT metabolized | Compound NOT metabolized | Compound NOT metabolized | Compound NOT metabolized |  |  |  |  |  |  |  | 
2 | CC(C)OC(=O)C(C)(C)Oc1ccc(C(=O)c2ccc(Cl)cc2)cc1 [FENOFIBRATE] |  |  | Compound NOT metabolized | Compound NOT metabolized | Compound metabolized |  |  | Compound metabolized | Compound NOT metabolized | Compound metabolized |  |  |  |  | 
3 | COC1=CC(=O)C[C@@H](C)[C@]12Oc1c(Cl)c(OC)cc(OC)c1C2=O [GRISEOFULVIN] | Compound metabolized |  |  | Compound NOT metabolized | Compound metabolized | Compound NOT metabolized | Compound NOT metabolized |  |  | Compound NOT metabolized | Compound metabolized | Compound NOT metabolized | Compound NOT metabolized |  | 
4 | CCCCC1=NC2(CCCC2)C(=O)N1Cc1ccc(-c2ccccc2-c2nnn[nH]2)cc1 [IRBESARTAN] | Compound metabolized | Compound metabolized |  | Compound NOT metabolized | Compound metabolized | Compound NOT metabolized |  | Compound NOT metabolized | Compound metabolized | Compound metabolized |  |  |  |  | 
5 | O=c1[nH]c2ccccc2n1C1CCN(CCCC(c2ccc(F)cc2)c2ccc(F)cc2)CC1 [PIMOZIDE] | Compound NOT metabolized |  | Compound NOT metabolized | Compound NOT metabolized | Compound NOT metabolized | Compound NOT metabolized |  |  |  |  |  | Compound NOT metabolized |  |  | 
6 | O=C([O-])C[C@H](O)C[C@H](O)/C=C/c1c(C2CC2)nc2ccccc2c1-c1ccc(F)cc1.O=C([O-])C[C@H](O)C[C@H](O)/C=C/c1c(C2CC2)nc2ccccc2c1-c1ccc(F)cc1.[Ca+2] [PITAVASTATIN CALCIUM] | Compound NOT metabolized | Compound NOT metabolized | Compound NOT metabolized | Compound NOT metabolized | Compound NOT metabolized | Compound NOT metabolized | Compound NOT metabolized | Compound NOT metabolized | Compound NOT metabolized |  |  |  |  |  | 
7 | COc1cc2nc(N3CCN(C(=O)c4ccco4)CC3)nc(N)c2cc1OC [PRAZOSIN] |  |  | Compound NOT metabolized | Compound NOT metabolized | Compound NOT metabolized |  |  |  | Compound NOT metabolized | Compound NOT metabolized |  |  |  |  | 
8 | CS(=O)(=O)O.OC(CCN1CCCCC1)(c1ccccc1)c1ccccc1 [PRIDINOL METHANESULFONATE] | Compound NOT metabolized | Compound NOT metabolized | Compound NOT metabolized | Compound NOT metabolized | Compound NOT metabolized | Compound NOT metabolized | Compound NOT metabolized |  |  |  |  |  |  |  | 
9 | O=C1C(CC[S+]([O-])c2ccccc2)C(=O)N(c2ccccc2)N1c1ccccc1 (stereo not given) [SULFINPYRAZONE] |  | Compound NOT metabolized |  | Compound NOT metabolized | Compound NOT metabolized | Compound NOT metabolized | Compound metabolized |  | Compound NOT metabolized | Compound NOT metabolized |  |  |  |  | 
10 | Nc1c2c(nc3ccccc13)CCCC2 [TACRINE] | Compound NOT metabolized |  | Compound NOT metabolized | Compound NOT metabolized | Compound NOT metabolized |  |  | Compound NOT metabolized | Compound NOT metabolized | Compound NOT metabolized |  | Compound NOT metabolized | Compound NOT metabolized |  | 
11 | C=CC[C@@H]1/C=C(\C)C[C@H](C)C[C@H](OC)[C@H]2O[C@@](O)(C(=O)C(=O)N3CCCC[C@H]3C(=O)O[C@H](/C(C)=C/[C@@H]3CC[C@@H](O)[C@H](OC)C3)[C@H](C)[C@@H](O)CC1=O)[C@H](C)C[C@@H]2OC.O [TACROLIMUS] | Compound metabolized | Compound metabolized | Compound metabolized | Compound metabolized | Compound NOT metabolized | Compound metabolized | Compound metabolized |  |  |  |  |  |  |  | 
12 | CN(C/C=C/C#CC(C)(C)C)Cc1cccc2ccccc12 [TERBINAFINE] | Compound NOT metabolized | Compound NOT metabolized | Compound NOT metabolized | Compound NOT metabolized | Compound NOT metabolized | Compound NOT metabolized | Compound NOT metabolized |  |  |  |  |  |  |  | 
13 | CC(C)(C)NC[C@H](O)COc1nsnc1N1CCOCC1.O=C(O)/C=C\C(=O)O [TIMOLOL MALEATE] | Compound NOT metabolized |  |  | Compound NOT metabolized | Compound NOT metabolized |  |  | Compound NOT metabolized | Compound NOT metabolized | Compound NOT metabolized |  |  |  |  | 
14 | CC[C@@]1(O)C(=O)OCc2c1cc1n(c2=O)Cc2cc3c(CN(C)C)c(O)ccc3nc2-1 [TOPOTECAN] | Compound NOT metabolized | Compound NOT metabolized | Compound NOT metabolized | Compound NOT metabolized | Compound NOT metabolized | Compound NOT metabolized | Compound NOT metabolized |  |  |  |  |  |  |  | 
15 | OC(CCN1CCCCC1)(c1ccccc1)C1CCCCC1 (stereo not given) [TRIHEXYPHENIDYL] | Compound metabolized | Compound NOT metabolized |  | Compound NOT metabolized |  |  |  |  | Compound NOT metabolized |  |  |  | Compound NOT metabolized | Compound NOT metabolized | Compound NOT metabolized
16 | COc1ccc(CN2CCNCC2)c(OC)c1OC.Cl.Cl [TRIMETAZIDINE DIHYDROCHLORIDE] | Compound metabolized | Compound NOT metabolized | Compound NOT metabolized | Compound NOT metabolized | Compound NOT metabolized | Compound NOT metabolized | Compound NOT metabolized |  |  |  |  |  |  |  | 
17 | CN1[C@@H]2CC[C@H]1C[C@@H](OC(=O)c1c[nH]c3ccccc13)C2 [TROPISETRON] | Compound NOT metabolized | Compound NOT metabolized | Compound NOT metabolized | Compound NOT metabolized | Compound NOT metabolized | Compound NOT metabolized | Compound NOT metabolized |  |  |  |  |  |  |  | 
18 | COc1ccc(C(CN(C)C)C2(O)CCCCC2)cc1 (stereo not given) [VENLAFAXINE] | Compound NOT metabolized | Compound NOT metabolized | Compound NOT metabolized | Compound NOT metabolized | Compound NOT metabolized | Compound NOT metabolized | Compound NOT metabolized |  |  |  |  |  |  |  | 
19 | CS(=O)(=O)O.O.O.O.O=C1Cc2cc(CCN3CCN(c4nsc5ccccc45)CC3)c(Cl)cc2N1 [ZIPRASIDONE MESYLATE] | Compound NOT metabolized | Compound metabolized | Compound NOT metabolized | Compound NOT metabolized | Compound NOT metabolized | Compound NOT metabolized | Compound NOT metabolized |  |  |  |  |  |  |  | 
